The text below walks through data of US12612413B2, “Heteroaryl compounds as inhibitors of programmed necrosis pathway, composition and method using the same” (ACCRO BIOSCIENCE INC., priority 2020, dated 2026).

One test deals with HT-29 cells. Briefly: HT-29 cell viability (necroptosis) assay. The test is classed as cell-based. Particulars: Homo sapiens, TNF-α (40 ng/mL), Smac mimetic (100 nM), z-VAD (20 μM), 40 h, from survival rate curve. How it is done: Human colon cancer HT-29 cells were used in a necroptosis assay. For this assay, HT-29 cells were added to 96-well plates. The compounds at different concentrations (0.3, 1.0, 3.0, 10.0, 20.0 μM) were then preprocessed for two hours. TNF-α (40 ng/mL), Smac mimetic (100 nM) and z-VAD (20 μM) were added, and the mixture was incubated for 40 h. Quantitative analysis of cell viability was conducted. DMSO pretreatment group was used as a negative control. Concentration for 50% of maximal effect was calculated according to the curve of the survival rate measured at different concentrations. FIG. 1 depicts the EC50 curves of compound A16.
`O=S1(=O)CC2(CCCO2)c2cc3nccc(Nc4ccc5scnc5c4)c3cc21` (stereo not drawn) [Compound B27] came in with an EC50 of 2200 nM.

In turn, `CC1(C)C(=O)c2cc3nccc(Nc4cc(O)ccc4F)c3cc2S1(=O)=O` [Compound B14] yielded an EC50 of 320 nM.

With `COC1=CS(=O)(=O)c2cc3c(Nc4ccc5scnc5c4)ccnc3cc21` [Compound A12, 8-(benzo[d]thiazol-5-ylamino)-3-methoxythieno[2,3-g]quinoline 1,1-dioxide], the EC50 came to 1030 nM.

On to `O=S1(=O)C=C(OC2CCNC2)c2cc3nccc(Nc4ccc5scnc5c4)c3cc21` (stereo not drawn) [Compound A113], for which the response was half-maximal at 1990 nM (EC50).

For the compound `O=S1(=O)C=C(C2CC2)c2cc3nccc(Nc4cncc(O)c4)c3cc21` [Compound A102], the EC50 came out at 9000 nM.

`O=S1(=O)C=C(O[C@@H]2CCOC2)c2cc3nccc(Nc4ccc5scnc5c4)c3cc21` [Compound A116] returned a 50% effective concentration (EC50) of 260 nM.

In the case of `O=S1(=O)C=C(C2CC2)c2cc3nccc(Nc4cc(O)c(F)cc4F)c3cc21` [Compound A100], the EC50 worked out at 950 nM.

For the compound `CC1(C)C(=O)c2cc3nccc(Nc4cc(O)c(Cl)cc4F)c3cc2S1(=O)=O` [Compound B16], the EC50 came to 1260 nM.

`CC1(C)C(O)c2cc3nccc(Nc4ccc5scnc5c4)c3cc2S1(=O)=O` (stereo not drawn) [Compound B9]: the EC50 amounted to 620 nM.

The compound `O=S1(=O)C=C(c2ccc(F)cc2)c2cc3nccc(Nc4ccc5scnc5c4)c3cc21` [Compound A26] registered an EC50 of 570 nM.

`O=S1(=O)C(C2CC2)=Cc2cc3nccc(Nc4ccc5scnc5c4)c3cc21` [Compound A6] came in with an EC50 of 540 nM.

The compound `CC(C)OC1=Cc2cc3nccc(Nc4ccc5scnc5c4)c3cc2S1(=O)=O` [Compound A15] returned an EC50 of 500 nM.

The compound `O=S1(=O)C=C(OC2COC2)c2cc3nccc(Nc4ccc5scnc5c4)c3cc21` [Compound A118] gave an EC50 of 290 nM.

In turn, `Cc1ccc(O)cc1Nc1ccnc2cc3c(cc12)S(=O)(=O)C=C3` [Compound A107] came in with an EC50 of 1060 nM.

As for `CC1(C)C(=O)c2cc3nccc(Nc4cc(O)c(F)cc4F)c3cc2S1(=O)=O` [Compound B15], the EC50 came to 720 nM.

Compound `O=S1(=O)C=Cc2cc3nccc(Nc4ccc5scnc5c4)c3cc21` [Compound A2] had an EC50 of 1020 nM.

As for `CC1=C(C)S(=O)(=O)c2cc3c(Nc4ccc5scnc5c4)ccnc3cc21` [Compound A8], it took 530 nM to reach a half-maximal effect (EC50).

Compound `CCC1=Cc2cc3nccc(Nc4ccc5scnc5c4)c3cc2S1(=O)=O` [Compound A4] came in with an EC50 of 980 nM.

With `O=S1(=O)C=C(c2cn[nH]c2)c2cc3nccc(Nc4ccc5scnc5c4)c3cc21` [Compound A30], the EC50 worked out at 97 nM.

Turning to `CC1=Cc2cc3nccc(Nc4ccn5ccnc5c4)c3cc2S1(=O)=O` [Compound A67, 8-(imidazo[1,2-a]pyridin-7-ylamino)-2-methylthieno[2,3-g]quinoline 1,1-dioxide], the midpoint of the response, the EC50, lay at 5710 nM.

For `O=S1(=O)C=C(c2ccncc2)c2cc3nccc(Nc4ccc5scnc5c4)c3cc21` [Compound A28], the 50% effective concentration (EC50) turned out to be 1010 nM.

Compound `COC1=C(C)S(=O)(=O)c2cc3c(Nc4ccc5scnc5c4)ccnc3cc21` [Compound A19] registered an EC50 of 200 nM.

Still in this test, the particulars now being: Homo sapiens, compound at 20 μM, TNF-α (40 ng/mL), Smac mimetic (100 nM), z-VAD (20 μM), 40 h, read-out: HT-29(20 μM) Survival.
Consider `CC1=Cc2cc3nccc(Nc4ccnc(N)c4)c3cc2S1(=O)=O` [Compound A65, 8-((2-aminopyridin-4-yl)amino)-2-methylthieno[2,3-g]quinoline 1,1-dioxide], for which the viability at 20 µM is 19.5%.

In the case of `O=S1(=O)c2cc3c(Nc4ccc5scnc5c4)ccnc3cc2OCC12CC2` [Compound B25], the viability at 20 µM was 70.7%.

For `CC1=Cc2cc3nccc(Nc4cc(O)cc(Br)c4)c3cc2S1(=O)=O` [Compound A60], the viability at 20 µM came out at 13.9%.

With `CCC1(C)C(C)c2cc3nccc(Nc4ccc5scnc5c4)c3cc2S1(=O)=O` (stereo not drawn) [Compound B5], the viability at 20 µM came to 39.2%.

For `CC1c2cc3nccc(Nc4ccc5scnc5c4)c3cc2S(=O)(=O)C1(C)CC1CC1` (stereo not drawn) [Compound B7], the viability at 20 µM came to 19.1%.

In the case of `CC1=CS(=O)(=O)c2cc3c(Nc4cc(O)ccc4C)ccnc3cc21` [Compound A76], the viability at 20 µM stood at 33.8%.

Consider `O=C1NCCc2ccc(Nc3ccnc4cc5c(cc34)S(=O)(=O)C=C5C3CC3)cc21` [Compound A93], for which the viability at 20 µM was 11.1%.

As for `N#Cc1cc(Nc2ccnc3cc4c(cc23)S(=O)(=O)C=C4C2CC2)ccc1O` [Compound A98], the viability at 20 µM was 14.8%.

In the case of `CC1=Cc2cc3nccc(Nc4ccc(O)cc4C)c3cc2S1(=O)=O` [Compound A51], the viability at 20 µM turned out to be 16.1%.

Regarding `CC1(O)c2cc3nccc(Nc4ccc5scnc5c4)c3cc2S(=O)(=O)C1(C)C` (stereo not drawn) [Compound B10, 8-(benzo[d]thiazol-5-ylamino)-3-hydroxy-2,2,3-trimethyl-2,3-dihydrothieno[2,3-g]quinoline 1,1-dioxide], the viability at 20 µM is 36.4%.

`CC1=Cc2cc3nccc(Nc4cnc5scnc5c4)c3cc2S1(=O)=O` [Compound A45]: the viability at 20 µM came to 27.6%.

`CC(C)C1=CS(=O)(=O)c2cc3c(Nc4ccc5scnc5c4)ccnc3cc21` [Compound A11]: the viability at 20 µM stood at 34.5%.

For the compound `CC1=Cc2cc3nccc(Nc4cc(N)cc(F)n4)c3cc2S1(=O)=O` [Compound A71, 8-((4-amino-6-fluoropyridin-2-yl)amino)-2-methylthieno[2,3-g]quinoline 1,1-dioxide], the viability at 20 µM came out at 23.4%.

As to `CC1=C(C)S(=O)(=O)c2cc3c(Nc4cc(O)ccc4C)ccnc3cc21` [Compound A88], the viability at 20 µM stood at 41.3%.

Turning to `CC1=C(C)S(=O)(=O)c2cc3c(Nc4n[nH]c5ccc(F)cc45)ccnc3cc21` [Compound A84], the viability at 20 µM turned out to be 18.1%.

Turning to `CC1=Cc2cc3nccc(Nc4cc(O)cc(F)c4)c3cc2S1(=O)=O` [Compound A59], the viability at 20 µM stood at 27.9%.

In the case of `CN(C)CCOC1=CS(=O)(=O)c2cc3c(Nc4ccc5scnc5c4)ccnc3cc21` [Compound A112], the viability at 20 µM amounted to 37.2%.

Turning to `CC1(C)C(=O)c2cc3nccc(Nc4n[nH]c5ccc(F)cc45)c3cc2S1(=O)=O` [Compound B19], the viability at 20 µM came out at 7.2%.

As to `CC1=Cc2cc3nccc(Nc4ccc5ncnn5c4)c3cc2S1(=O)=O` [Compound A68], the viability at 20 µM came out at 11.9%.

Turning to `O=S1(=O)C=C(C2CC2)c2cc3nccc(Nc4n[nH]c5ccc(F)cc45)c3cc21` [Compound A90], the viability at 20 µM was determined as 36%.

`CC1=Cc2cc3nccc(Nc4cnc5snc(C)c5c4)c3cc2S1(=O)=O` [Compound A44]: the viability at 20 µM was 20.1%.

`CC1=Cc2cc3nccc(Nc4ccc(O)c(Cl)c4)c3cc2S1(=O)=O` [Compound A55]: the viability at 20 µM was 25.6%.

In the case of `O=S1(=O)C=C(Br)c2cc3nccc(Nc4ccc5scnc5c4)c3cc21` [Compound A1, 8-(benzo[d]thiazol-5-ylamino)-3-bromothieno[2,3-g]quinoline 1,1-dioxide], the viability at 20 µM worked out at 4.5%.

Regarding `CC1=CS(=O)(=O)c2cc3c(Nc4ccc(O)cc4C)ccnc3cc21` [Compound A80], the viability at 20 µM came to 14.4%.

Take `Nc1cc(C2=CS(=O)(=O)c3cc4c(Nc5ccc6scnc6c5)ccnc4cc32)ccn1` [Compound A29]: the viability at 20 µM came to 1.1%.

Consider `O=S1(=O)C=C(C2CC2)c2cc3nccc(Nc4ccc5nc[nH]c5c4)c3cc21` [Compound A94], for which the viability at 20 µM turned out to be 28.9%.

Regarding `CC(=O)Nc1ccc(C)c(Nc2ccnc3cc4c(cc23)S(=O)(=O)C=C4C)c1` [Compound A77], the viability at 20 µM turned out to be 12.9%.

Consider `C=CCC1(C)C(=O)c2cc3nccc(Nc4ccc5scnc5c4)c3cc2S1(=O)=O` (stereo not drawn) [Compound B6], for which the viability at 20 µM worked out at 42.5%.

Consider `CC1=Cc2cc3nccc(Nc4ccc5c(c4)CNCC5)c3cc2S1(=O)=O` [Compound A41], for which the viability at 20 µM worked out at 9.8%.

In the case of `CC1=Cc2cc3nccc(Nc4ccc5cn[nH]c5c4)c3cc2S1(=O)=O` [Compound A35], the viability at 20 µM was 33%.

With `CC(=O)Nc1ccc(C)c(Nc2ccnc3cc4c(cc23)S(=O)(=O)C(C)=C4C)c1` [Compound A86], the viability at 20 µM stood at 20.5%.

In the case of `CC1=Cc2cc3nccc(Nc4ccc(O)c(F)c4)c3cc2S1(=O)=O` [Compound A54], the viability at 20 µM amounted to 31.9%.

Take `CC1=Cc2cc3nccc(Nc4cc(N)ccc4C)c3cc2S1(=O)=O` [Compound A49]: the viability at 20 µM is 60.3%.

Take `Nc1cncc(Nc2ccnc3cc4c(cc23)S(=O)(=O)C=C4C2CC2)c1` [Compound A103]: the viability at 20 µM was found to be 46.1%.

Take `CC1=Cc2cc3nccc(Nc4cc(O)ccc4C)c3cc2S1(=O)=O` [Compound A46]: the viability at 20 µM amounted to 13.1%.

In the case of `O=S1(=O)CC2(COC2)c2cc3nccc(Nc4ccc5scnc5c4)c3cc21` [Compound B28, 8′-(benzo[d]thiazol-5-ylamino)-2′H-spiro[oxetane-3,3′-thieno[2,3-g]quinoline] 1′, 1′-dioxide], the viability at 20 µM came to 15%.

Take `CC1=Cc2cc3nccc(Nc4cc(N)ncc4C)c3cc2S1(=O)=O` [Compound A63]: the viability at 20 µM is 48.8%.

As for `C#Cc1cc(O)cc(Nc2ccnc3cc4c(cc23)S(=O)(=O)C(C)=C4)c1` [Compound A62], the viability at 20 µM was 22.3%.

With `CC1=Cc2cc3nccc(Nc4cc(O)cc(C#N)c4)c3cc2S1(=O)=O` [Compound A61], the viability at 20 µM was determined as 29.2%.

For `CC1=CS(=O)(=O)c2cc3c(Nc4n[nH]c5ccc(F)cc45)ccnc3cc21` [Compound A73], the viability at 20 µM turned out to be 40.7%.

In the case of `COc1ccc(C2CS(=O)(=O)c3cc4c(Nc5ccc6scnc6c5)ccnc4cc32)cc1` (stereo not drawn) [Compound B24], the viability at 20 µM was found to be 16.5%.

What is called EC50 is the concentration needed to bring the measured effect to its halfway point. High values mean weaker potency, low ones greater potency.
